Source: patent publication US20230390371A1, “ANTI-TUMOR IMMUNITY INDUCES THE PRESENTATION OF ABERRANT PEPTIDES” (STICHTING HET NEDERLANDS KANKER INSTITUUT-ANTONI VAN …, priority 2020, published 2023)
Entries after “also recorded” stand apart in the source; their conditions may differ. Where a SMILES comes first, the peptide text is derived from it. The star is where a group is joined. Cbz = O=C(OCc1ccccc1)*

Experiments:
Assay type in all cases: cell-based, human
12T cells = assay: Ribosome profiling with diricore / bump analysis; conditions: IFNγ+IDOi
Excerpt: Preprocessing of FASTQ files consisted of adapter removal using cutadapt (available at doi.org/10.14806/ej.17.1.200) with the parameters (--quality-base=33-O7-e 0.15-m 20-q 5) and removal of rRNA and tRNA contaminants by means of alignment against a reference (rRNA reference data from GENCODE^61 v19: rRNA, MT_RNA, rRNA_pseudogene, and tRNA reference data from GtRNAdb) using bowtie2^62 with parameters (--seed 42−p1—local).
The actual alignment of pre-processed FASTQ files was done with TopHat2^63 and Bowtie2^62 against GRCh37/ hg19 and GENCODE v19/BASIC transcript with Ensembl coordinates using parameters (seed 42-n 2-m 1 --no-novel-juncs --no-novel-indels --no-coverage-search --segment-length 25). In a subsequent step the primary aligned reads filtered for a minimum mapping quality of 10. […]
The reads (FASTQ) from Riboseq experiments were aligned to human transcript assembly (gencode v19) after removal of low quality reads and the reads that align to tRNA and rRNA (refer methods section—Diricore). […]
BAM files were converted to BED using BEDTOOLS 68 and later file formats were edited using PERL scripts. Each gene was divided into 100 windows of equal length, and read (separately for every sample) at each window were quantified using BEDTOOLS. The array of reads, logged (base 2), were normalized between 0 to 1. […]

MD55A3 melanoma cells = assay: V5-ATF4(1-63)-His frameshift reporter, His-tag pulldown and V5-tag immunoblotting; conditions: IFNγ+IDOi, MD55A3 reporter cells
Excerpt: FIG. 3: W-Bumps are associated with disordered out-of-frame peptides, and shortage in tryptophan leads to frameshifting events. • (a) Bar-plots depicting total occurrences of alpha-helices, beta-sheets and turns for tryptophan-containing peptide sequences corresponding to W-Bumps (left) and all remaining peptide sequences (middle), and the difference in percentages (right). […] Tryptophan shortage, on the other hand, can lead to stalling on the tryptophan codon (bottom left panel), or could in theory induce frameshifting events, leading to aberrant peptide production (lower right panel). Since secondary structure of growing polypeptide chains is attained in the lower tunnel of the ribosome, the loss of an a-helical secondary structure in this tunnel could hamper ribosomal progression. (c) Line-plots depicting the probability of disorderedness of peptide sequences. The position of the tryptophan is indicated by the dashed line. […] The green line represents the average probability of disorderedness of all peptides (‘All tryptophan codons’, n=36508). A group of outlier candidates that show relatively ordered out-of-frame peptide sequences were selected for comparisons (‘Selected tryptophan codons’, n=94, red). (d) Line-plots depicting mean frequency of RPFs at single nucleotide resolution across all tryptophans (green) and the selected outlier set (red) from panel 3c. […]

MD55A3 cells = assay: Proteomic analysis of tryptophan-containing proteins with IFNγ and proteasome inhibition; conditions: combined treatment with IFNγ and MG132
Method: Frozen MD55A3 cell pellets were lysed, reduced and alkylated in heated guanidine (GuHCl) lysis buffer as described by Jersie-Christensen et al.^70. Proteins were digested with Lys-C (Wako) for 2 h at 37° C., enzyme/substrate ratio 1:100. The mixture was then diluted to 2 M GuHCl and digested overnight at 37° C. with trypsin (Sigma) in enzyme/substrate ratio 1:50. Digestion was quenched by the addition of TFA (final concentration 1%), after which the peptides were desalted on a Sep-Pak C18 cartridge (Waters, Massachusetts, USA). Samples were vacuum dried and stored at −80° C. until LC-MS/MS analysis.
Peptides were reconstituted in 2% formic acid and analyzed by nano LC-MS/MS on an Q Exactive HF-X Hybrid Quadrupole-Orbitrap Mass Spectrometer equipped with an EASY-NLC 1200 system (Thermo Scientific). […]
RAW files were analyzed by Proteome Discoverer (version 2.3.0.523, Thermo Scientific) using standard settings. […] Differentially expressed proteins were determined using a t-test (threshold: FDR 1% or FDR 5% and S0: 0.13). […]
To look at the downstream consequences of W-Bump formation, we assessed the impact of W-Bumps on protein expression by proteomic analysis following IFNγ induction. We first analyzed the differential protein expression in IFNγ-treated versus control cells (data not shown) and grouped proteins according to the number of tryptophan residues they contain (FIG. 2l). […]

[1] = system: peripheral blood mononuclear cells from healthy donors; assay: Immunogenicity in peripheral blood mononuclear cells from healthy donors

In the case of `Cn1cc(C[C@H](N)C(=O)O)c2ccccc21` [IDOi, 1-Methyl-L-tryptophan], the “accumulation of RPFs at the W-Bumps region / bumps” value (12T cells) is reported as “rescued; also recorded: completely abolished”, the “global redistribution of RPFs towards the translation initiation sites and enrichment of tryptophan codon signal at A-site” value (12T cells) is reported as “negated” and the IFNγ-induced frameshifting (MD55A3 melanoma cells) is reported as “prevented”.

In the case of `CC(C)C[C@@H](C=O)NC(=O)[C@H](CC(C)C)NC(=O)[C@H](CC(C)C)NC(=O)OCc1ccccc1` [MG132] (Cbz-Leu-Leu-Leu-aldehyde), the “restoration of reduced levels of high-tryptophan containing proteins” value (MD55A3 cells) is reported as “did not restore”.

“GLLETHPALLL (SRSF3-based peptide) [SEQ ID NO:62, SRSF3-derived peptide presented by MDA-MB-231]” was tested, and the immunogenicity [1] was “showed immunogenicity”.

“TVIGTLLEI (RHOBTB3-based peptide) [SEQ ID NO:61, RHOBTB3-derived peptide presented by MDA-MB-231]” was tested, and the immunogenicity [1] was “showed immunogenicity”.

With “TLVEDLLEV (RFX1-based peptide) [SEQ ID NO:58, RFX1-derived peptide presented by MDA-MB-231]” the immunogenicity [1] was “showed immunogenicity”.
